According to patent publication US12050224B2, “Compounds useful as near-infrared fluorescent probes selectively binding to tau aggregates and method of preparing the same” (KOREA INSTITUTE OF SCIENCE AND TECHNOLOGY, priority 2020, dated 2024):

How the values were obtained:
[1] = Measurement of absorbance and fluorescence of synthesized compound in ethanol; assay type: physicochemical; conditions: 10 μM in ethanol; for λem: Maximum emission wavelength / λex: Maximum excitation wavelength: average of three measurements; for Stokes shift: difference between excitation and emission
Method: In order to investigate the optical properties of the newly synthesized compound in the present invention, the absorbance was measured using a V-730 UV-visible spectrophotometer manufactured by JASCO, and fluorescence was measured using a FlexStation 3 multi-mode microplate reader manufactured by Molecular Devices. Absorbance and fluorescence were measured three times at a concentration of 10 μM in ethanol, and the average thereof is shown in Table 1 below. At this time, T807 (AV-1451) as a Tau positron-emission-tomography (PET) tracer and Thioflavin S, which are commercially available to detect tau production in vivo, were used as a control group.

[2] = molecular target: T1, tau aggregates (Tau-K18 protein) (Homo sapiens, UniProt P10636); assay: In vitro binding assay (fluorescence labeling ability) to tau aggregates; conditions: for SIaβ: selectivity index = fluorescence intensity of probe bound to Tau aggregate / bound to Aβ aggregate / SItaumono: selectivity index, tau aggregate versus tau monomer / FItau: fold increase = fluorescence intensity of probe bound to tau aggregate / probe (free): compound 10 μM; for FItau: fold increase = fluorescence intensity of probe bound to tau aggregate / probe (free): PBS, 30 min incubation; for selectivity for tau aggregates over amyloid aggregates: in vitro screening as fluorescent probes
T1 construct: aggregation of Tau-K18 protein (0.5 mg/ml in PBS) purified and isolated from E. coli; made in house; host or cells: E. coli
Method: (§1) Experimental Example 2-1: Tau and amyloid beta aggregation induction For amyloid aggregation induction, the synthesized Abeta40 (Amyloid Beta 40) peptide was dissolved in PBS at a concentration of 0.5 mg/ml to induce aggregation for 7 days at 37° C. and 200 rpm with shaking. To induce aggregation of tau proteins, aggregation of Tau-K18 protein (0.5 mg/ml in PBS) purified and isolated from E. coli with heparin (0.1 mg/ml) and DTT (100 μM) was induced at 37° C. and 200 rpm for 7 days under shaking conditions. […] At this time, thioflavin S (Th S), which is known to bind to beta-sheet structures such as tau and amyloid aggregates, was used as a control group (Ex: 430 nm, Em: 480-610 nm). Specifically, in order to determine the labeling ability of newly synthesized compounds to tau aggregate proteins, a 25 μl dilution of a 10 μM labeling substance in PBS and 25 id of a 0.125 mg/ml tau or amyloid pre-aggregate or aggregate diluted in PBS were each incubated for 30 minutes, and then a fluorescence spectrum reaction was measured using a spectrophotometer. Selectivity analysis for tau aggregates and amyloid beta aggregates of the novel synthetic compounds of the present invention was performed as described above, and the resulting in vitro fluorescence changes are summarized in Table 2 and FIG. 1 below.

[3] = molecular target: T2, amyloid beta aggregates (Abeta40) (Homo sapiens, UniProt P05067); assay: In vitro binding assay (fluorescence labeling ability) to amyloid beta aggregates; conditions: compound 10 μM, PBS, 30 min incubation
T2 construct: the synthesized Abeta40 (Amyloid Beta 40) peptide was dissolved in PBS; host or cells: synthetic peptide
Method: as §1

[4] = molecular target: bovine serum albumin (BSA) (Bos taurus, UniProt P02769); assay: Measurement of non-specific binding using BSA; conditions: compound 10 μM, 0.25 mg/ml BSA, 30 min incubation
Method: In order to exclude non-specific binding of the compound to serum, reactivity between the compound and bovine serum albumin (BSA) was further tested. 25 μl of a 10 μM compound was incubated along with 25 μl of 0.25 mg/ml BSA for 30 minutes, and then the fluorescence spectrum reaction was measured using a spectrophotometer. The BSA response was conducted to identify non-selective binding to other proteins in the blood when applied to patients as an imaging agent.

T1 sequence (P10636 561-685 limits assumed): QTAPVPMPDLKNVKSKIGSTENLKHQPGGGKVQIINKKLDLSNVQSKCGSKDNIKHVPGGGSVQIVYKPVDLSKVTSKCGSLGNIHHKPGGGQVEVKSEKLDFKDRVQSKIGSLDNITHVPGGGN
Sequence of bovine serum albumin (BSA) (P02769 25-607): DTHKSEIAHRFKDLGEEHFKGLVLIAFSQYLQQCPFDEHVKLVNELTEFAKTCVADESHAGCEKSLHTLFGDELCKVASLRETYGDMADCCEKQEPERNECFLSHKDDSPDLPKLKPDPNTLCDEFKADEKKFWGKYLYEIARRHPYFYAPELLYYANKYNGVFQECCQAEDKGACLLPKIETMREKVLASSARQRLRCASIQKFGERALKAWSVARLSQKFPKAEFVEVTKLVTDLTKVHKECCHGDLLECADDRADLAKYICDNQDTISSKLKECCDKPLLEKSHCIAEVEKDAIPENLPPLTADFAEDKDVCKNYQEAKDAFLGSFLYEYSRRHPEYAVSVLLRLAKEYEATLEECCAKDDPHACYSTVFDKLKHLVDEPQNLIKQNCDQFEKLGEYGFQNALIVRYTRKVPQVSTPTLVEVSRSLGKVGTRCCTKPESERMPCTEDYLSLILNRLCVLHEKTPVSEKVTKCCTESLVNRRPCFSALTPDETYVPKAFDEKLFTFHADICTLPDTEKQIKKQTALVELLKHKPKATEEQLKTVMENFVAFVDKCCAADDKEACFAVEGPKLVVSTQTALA
T2 sequence (P05067 672-711 limits assumed): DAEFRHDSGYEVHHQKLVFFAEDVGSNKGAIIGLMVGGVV

Row | SMILES | λem: Maximum emission wavelength [1] | λex: Maximum excitation wavelength [1] | Stokes shift [1] | SIaβ: selectivity index = fluorescence intensity of probe bound to Tau aggregate / bound to Aβ aggregate [2] | SItaumono: selectivity index, tau aggregate versus tau monomer [2] | FItau: fold increase = fluorescence intensity of probe bound to tau aggregate / probe (free) [2] | selectivity for tau aggregates over amyloid aggregates [2] | FIAβ: fold increase = fluorescence intensity of probe bound to Aβ aggregate / probe (free) [3] | FIBSA: fold increase = fluorescence intensity of probe bound to BSA / probe (free) [4]
1 | COc1ccc2nc(/C=C/C(=O)c3ccc(N(C)C)cc3)ccc2c1 [Compound 13a, (E)-1-(4-(dimethylamino)phenyl)-3-(6-methoxyquinolin-2-yl)prop-2-en-1-one] | 601 nm | 339 nm | 202 nm | 4.6 | 5.2 | 5.12 | 4.6 times | 1.10 | 1.23
2 | Nc1ccc(C(=O)/C=C/c2ccc3cc(O)ccc3n2)cc1 [Compound 13c, (E)-1-(4-aminophenyl)-3-(6-hydroxyquinolin-2-yl)prop-2-en-1-one] | 570 nm | 378 nm | 192 nm | 2.8 | 3.2 | 4.63 |  | 1.67 | 1.72
3 | COc1ccc2nc(/C=C/C(=O)c3ccc(C)cc3)ccc2c1 [Compound 13d, (E)-1-(4-tolyl)-3-(6-methoxyquinolin-2-yl)prop-2-en-1-one] | 454 nm | 314 nm | 140 nm | 3.2 | 4.8 | 6.05 |  | 1.88 | 1.57
4 | COc1ccc2nc(/C=C/C(=O)c3ccc(Br)cc3)ccc2c1 [Compound 13e, (E)-1-(4-bromophenyl)-3-(6-methoxyquinolin-2-yl)prop-2-en-1-one] | 415 nm | 314 nm | 101 nm | 3.8 | 2.2 | 5.18 | 3.8 times | 1.37 | 1.39
5 | COc1ccc2nc(/C=C/c3ccc(C(F)(F)F)cc3)ccc2c1 [Compound 14a, (E)-6-methoxy-2-(4-(trifluoromethyl)styryl)quinolone] | 415 nm | 359 nm | 56 nm | 1.9 | 2.0 | 1.01 |  | 0.54 | 0.60
6 | COc1ccc2nc(/C=C/c3ccncc3)ccc2c1 [Compound 14b, (E)-6-methoxy-2-(2-(pyridin-4-yl)vinyl)quinolone] | 420 nm | 357 nm | 63 nm | 1.4 | 1.3 | 0.79 |  | 0.57 | 0.61
7 | CNc1ccc(/C=C/C=C/c2ccc3cc(OC)ccc3n2)cc1 [Compound 15b, 4-((1E,3E)-4-(6-methoxyquinolin-2-yl)buta-1,3-dien-1-yl)-N-methylanaline] | 602 nm | 400 nm | 202 nm | 2.0 | 3.6 | 0.63 |  | 0.32 | 0.26
8 | COc1ccc2nc(/C=C/C=C/c3ccc(N(C)C)cc3)ccc2c1 [Compound 15c, 4-((1E,3E)-4-(6-methoxyquinolin-2-yl)buta-1,3-dien-1-yl)-N,N-dimethylaniline] | 600 nm | 399 nm | 201 nm | 1.2 | 3.9 | 0.81 |  | 0.18 | 0.19
9 | COc1ccc2nc(/C=C/C=C/c3ccc(N(C)C)nc3)ccc2c1 [Compound 15d, 5-((1E,3E)-4-(6-methoxyquinolin-2-yl)buta-1,3-dien-1-yl)-N,N-dimethylpyridin-2-amine] | 520 nm | 402 nm | 118 nm | 1.1 | 1.3 | 1.33 |  | 1.25 | 1.05
10 | COc1ccc2nc(/C=C/C=C/c3ccc([N+](=O)[O-])nc3)ccc2c1 [Compound 15e, 6-methoxy-2-((1E,3E)-4-(6-nitropyridin-3-yl)buta-1,3-dien-1-yl)quinolone] | 587 nm | 389 nm | 198 nm | 2.2 | 4.5 | 0.95 |  | 0.44 | 0.17
11 | Fc1ccc(-c2ccc3c(c2)[nH]c2ccncc23)cn1 [Compound T807, reference compound] | 369 nm | 304 nm | 65 nm |  |  |  |  |  | 
